Key:
Assay in all cases: preservation efficacy test (PET), European Pharmacopoeia 5.1.3
Type in all cases: cell-based
[1] = tested on: Candida albicans; settings: CA, use concentration in label; for count at 2 days: 2 days after inoculation; for count at 7 days: 7 days after inoculation; for count at 14 days: 14 days after inoculation; for count at 28 days: 28 days after inoculation
[2] = tested on: Pseudomonas aeruginosa; settings: PA, use concentration in label; for count at 2 days: 2 days after inoculation; for count at 7 days: 7 days after inoculation; for count at 14 days: 14 days after inoculation; for count at 28 days: 28 days after inoculation
[3] = tested on: Escherichia coli; settings: EC, use concentration in label; for count at 2 days: 2 days after inoculation; for count at 7 days: 7 days after inoculation; for count at 14 days: 14 days after inoculation; for count at 28 days: 28 days after inoculation
[4] = tested on: Aspergillus brasiliensis; settings: AB, use concentration in label; for count at 2 days: 2 days after inoculation; for count at 7 days: 7 days after inoculation; for count at 14 days: 14 days after inoculation; for count at 28 days: 28 days after inoculation
[5] = tested on: Staphylococcus aureus; settings: SA, use concentration in label; for count at 2 days: 2 days after inoculation; for count at 7 days: 7 days after inoculation; for count at 14 days: 14 days after inoculation; for count at 28 days: 28 days after inoculation

Row | SMILES | count at 2 days [1] | count at 7 days [1] | count at 14 days [1] | count at 28 days [1] | count at 2 days [2] | count at 7 days [2] | count at 14 days [2] | count at 28 days [2] | count at 2 days [3] | count at 7 days [3] | count at 14 days [3] | count at 28 days [3] | count at 2 days [4] | count at 7 days [4] | count at 14 days [4] | count at 28 days [4] | count at 2 days [5] | count at 7 days [5] | count at 14 days [5] | count at 28 days [5]
1 | CC(=O)CCC(=O)O [0.4% Levulinic Acid] | 240.000 | 220.000 | 240.000 | 38.000 | 1 | 1 | 1 | 1 | 310 | 1 | 1 | 1 | 710.000 | 440.000 | 390.000 | 120.000 | 45.000 | 1 | 1 | 1
2 | CCCCCC(O)CO (stereo not shown) [0.2 % 1,2-heptanediol] | – | – | – | 420.000 | 1 | 1 | 1 | 1 | 53.000 | 1.100 | 1 | 1 | 790.000 | 630.000 | 230.000 | 220.000 | 84.000 | 2.300 | 1 | 1
3 | CCCCC(O)C(C)O (stereo not shown) [0.4% 2,3-heptanediol] | 640.000 | 350.000 | 130.000 | 11.000 | 1 | 1 | 1 | 1 | 320.000 | 2.400 | 1 | 1 | 790.000 | 930.000 | 500.000 | 390.000 | – | 12.000 | 1 | 1
4 | CC(O)C(=O)[O-].[Na+] (stereo not shown) [0.8% sodium lactate (50%)] | 930.000 | 800.000 | 890.000 | 260.000 | 1 | 1 | 1 | 1 | 440.000 | 210.000 | 210.000 | 850 | 910.000 | 730.000 | 440.000 | 190.000 | 190.000 | 150.000 | 170.000 | 18.000
